Results: article PMC11009625, “Antibiotic class with potent in vivo activity targeting lipopolysaccharide synthesis in Gram-negative bacteria” (Proceedings of the National Academy of Sciences of the …, 2024)
Values after ≈ are worked out from the molar mass of the structure shown. Like-named read-outs stand apart in the source and are kept apart here.

What was measured:
[1] = tested on: P. aeruginosa PAO1 and efflux-defective PAO750; assay: MIC, P. aeruginosa laboratory strains; format: cell-based; conditions: Pseudomonas aeruginosa
Description: (§1) Minimum inhibitory concentration (MIC) values were determined according to the Clinical Laboratory Standards Institute guidelines. Frequency of resistance was determined by plating ~5 × 10^8 bacterial cells on agar-solidified media plates containing test compound at concentrations corresponding to four times the measured solid-media MIC of the strains. Colonies were counted after 24 h, restreaked onto media containing the same concentration of compound, and the MIC remeasured against the assayed compound. Genomic DNA from isolated clones was sequenced by paired-end sequencing on an Illumina MiSeq device. Complete experimental details available in SI Appendix. […]
Minimum inhibitory concentration (MIC) determination. Broth microdilution and agar dilution
MIC assays were conducted according to CLSI guidelines (M07-2012). Appropriate inoculation
suspension density was assessed using a Sensititre Nephelometer with a Sensititre 0.5
McFarland Standard. […]

[2] = tested on: E. coli ATCC 25922; assay: Frequency of resistance and agar MIC, E. coli; format: cell-based; conditions: Escherichia coli, ATCC25922, read-out: Agar MIC E. coli ATCC 25922
Description: as §1
Minimum inhibitory concentration (MIC) determination. […] Appropriate inoculation suspension density was assessed using a Sensititre Nephelometer with a Sensititre 0.5 […]
Frequency of Resistance. Frequency of resistance was assessed by spread plating between […] cfu of a freshly-grown culture of the strain of interest on plates containing a concentration of compound corresponding to 4 times the MIC of the strain (as determined by agar-dilution MIC). […] The frequency of resistance was determined by dividing the number of colonies obtained on the selective plates after 24 hours of growth by the calculated total population plated. […]

[3] = in vivo; parameters: species or system NMRI mice; conditions: female, NMRI, mouse, sc
Description: PK and safety studies were done the Latvian Institute for Organic Synthesis (Riga, Latvia) and in vivo efficacy studies were done at Statens Serum Institut (Copenhagen, Denmark). Assays were done in accordance with the relevant permits at the respective sites (SI Appendix). For PK studies, plasma samples were taken from mice dosed subcutaneously and the samples were analyzed by UPLC/MS/MS. For in vivo efficacy studies, neutropenic mice were infected intraperitoneally with 10^6 bacteria and treated with subcutaneously with test compounds 1 h after infection. The mice were euthanized 4 h after treatment and serially diluted samples of blood and peritoneal fluid were plated onto blood agar plates. Complete experimental details available in SI Appendix. […]
In vivo pharmacokinetic studies
Animals. NMRI female mice (10–12 weeks old, 27–33 g, n = 60) were obtained from ENVIGO (The Netherlands) and housed prior to treatment under standard conditions (21–23 °C, 12-h light/dark cycle, relative humidity 45%–65%) with unlimited access to food (R70 diet from […]
Lantmännen) and water. The experimental procedures were performed in accordance with the guidelines of the European Community and local laws and policies (Directive 2010/63/EU), and all of the procedures were approved by Food and Veterinary Service, Riga, Latvia. […]
PK assay in mice. For PK studies mice were dosed subcutaneously (SC) via a single bolus injection (injection volume 10 mL/kg). Blood samples were collected in tubes containing heparin. Blood was sampled from tail vein 15, 30, 60, 120, and 240min after the SC administration of the compounds. Tubes were centrifuged at +4 °C 10,000× g for 3 min. Plasma samples were collected and stored at −20 °C until analysis.
Plasma sample analysis by UPLC/MS/MS. Concentrations of EBL-3599 and EBL-3647 in mouse blood plasma were measured by liquid chromatography tandem mass spectrometry (LC/MS/MS) in positive electrospray ionization (ESI+) in multi reaction monitoring (MRM) mode.
Analyses were performed on a Waters Acquity UPLC system coupled to Waters XEVO TQ-Smicro tandem mass spectrometer. Chromatographical separation was carried out on Waters Acquity BEH C18 column (2.1×50mm, 1.7µm). The column temperature was 30°C, flow rate was 0.4mL/min. Linear gradient elution was applied, solvent A was 0.1% formic acid in water and solvent B was acetonitrile. The gradient program was: 0min – 5% B; 2.5min – 98% B; 4.5min – 98% B; 4.7min – 5% B; 5min – 5% B. Injection volume was 1µL.
Mass spectrometry parameters were obtained experimentally by direct infusion of EBL-3599 and […]
energy was 30 for all transitions. MS/MS transitions for EBL-3647 were 667.80 > 225.90 and 667.80 > 309.96. Cone voltage was 15V and collision energy was 35 and 25, respectively.
Calibration standards and quality control samples were prepared by spiking a blank mouse plasma with a stock solution of analyte to achieve a nominal concentration from 0.08 μg/mL to 80 μg/mL for both analyte.
A sample volume of 20 μL was transferred into a plastic tube and mixed with 300μL acetonitrile/methanol mixture (3:1, v/v) to precipitate proteins. The tubes was vortexed to mix and centrifuged at 10000 rpm for 10 min. 200 μL of supernatant was diluted with 600 μL of 0.1% formic acid and subjected to LC/MS/MS analysis. Samples above the upper limit of calibration should be diluted 10 times with blank plasma extract and reanalyzed. Bioanalysis of samples from each mouse were measured in duplicate and the results averaged.
Bacterial strains and inoculum. E. coli EC 106-09 (EN122) and K. pneumoniae SSI #3010 (EN124) are clinical isolates from Denmark. Bacterial suspensions for inoculation of mice were prepared

[4] = PAO1, read-out: MIC P. aeruginosa PAO1
[5] = PAO1, read-out: MIC P. aeruginosa PAO750

SMILES	MIC [1, 4] [µg/mL]	MIC [1, 5] [µg/mL]	MIC [2] [µg/mL]	AUC ([3]; 10 mg/kg) [ng·h/mL]	Cmax ([3]; 10 mg/kg) [ng/mL]	AUC ([3]; 25 mg/kg) [ng·h/mL]	Cmax ([3]; 25 mg/kg) [ng/mL]	AUC ([3]; 50 mg/kg) [ng·h/mL]	Cmax ([3]; 50 mg/kg) [ng/mL]	AUC ([3]; 100 mg/kg) [ng·h/mL]	Cmax ([3]; 100 mg/kg) [ng/mL]
Cc1cc(C#N)nc(N2CCN(S(=O)(=O)c3ccc(NC(=O)c4cc(CNCCCN)ccc4N(C)S(C)(=O)=O)cc3)CC2)n1.Cl.Cl [EBL-3599]	> 64	64	2	22900	13000	58000	27000	136000	65000	349000	142000
Cc1cc(C#N)nc(N2CCN(S(=O)(=O)c3ccc(NC(=O)c4cc(CN5CC(CN)C5)ccc4N(C)S(C)(=O)=O)cc3)CC2)n1 [EBL-3647]	> 64	64 (≈ 95.8 µM)	2 (≈ 2.99 µM)	20200	12000	55300	30000	140000	72000	222000	130000
